From US7498292B2, “Combinatorial libraries of autoinducer analogs, autoinducer agonists and antagonists, and methods of use thereof” (The Research Foundation of State University of New York, priority 2002, dated 2009)
Entries after “also recorded” stand apart in the source; their conditions may differ.

Assays:
LasR [1] = biological target: T1, LasR (Pseudomonas aeruginosa, UniProt P25084); experiment: lasI-gfp reporter agonist assay, PAO-JP2 (plasI-LVAgfp); assay type: cell-based, P. aeruginosa; details: PAO-JP2 (plasI-LVAgfp), compounds made in solution phase, increasing concentrations (1, 100, 400 μM)
T1 construct: endogenous in cells; host or cells: P. aeruginosa PAO-JP2 (lasI, rhlI) harboring plasI-LVAgfp
Source text: Since this strain lacks the ability to produce natural AIs due to disruption of both AI synthase genes, activation of LasR relies on the addition of exogenous AI1. Expression of gfp (encoding green fluorescent protein) is under control of the LasR-AI1 inducible lasI promoter, allowing rapid screening for LasR agonists by measuring the level of GFP expression in their presence.
(§1) P. aeruginosa strain PAO-JP2 (lasI, rhlI) (Rahme et al., Science 268:1899-1902 (1995), which is hereby incorporated by reference in its entirety) harboring plasI-LVAgfp (Pearson et al., Proc. Natl Acad. Sci. USA 91:197-201 (1994), which is hereby incorporated by reference in its entirety) was grown at 37° C. in LB with 300 μg/ml carbenicillin. For agonist assays, an overnight culture was diluted to an OD600 of 0.1 and transferred to wells of a 96-well plate on which test compounds had previously been added and dried. The final concentration of each analog tested was roughly 400 μM, although this is an overestimate due to purity issues. Cells were then incubated for 6 hours at 37° C. with vigorous shaking. GFP expression was detected with a Molecular Imager (BioRad) (488 nm excitation and 695 nm bandpass filter) and quantified with ImageQuant software. The OD600 of cultures was determined to normalize GFP expression to cell density.
(§2) Reporter strains were grown overnight in LB plus 300 μg/ml carbenicillin at 37° C. and diluted to an OD600 of 0.1. Following an incubation of 1 hour, 200 μl of cell culture was added to individual wells of a 96 well plate containing appropriate amount of test compound(s). Plates were incubated for 6 hours and then scanned for fluorescence emission with a Molecular Imager (488 nm excitation and 695 nm bandpass filter). Fluorescence was quantified with ImageQuant software.

RhlR = biological target: T2, RhlR (Pseudomonas aeruginosa, UniProt P54292); details: 4-fold excess, in E. coli; cited from earlier work
T2 construct: an RhlR-AI2 controlled rhlI-gfp reporter, PAO-JP2 (prhlI-LVAgfp); endogenous in cells; host or cells: P. aeruginosa PAO-JP2 (prhlI-LVAgfp)

LasR [2] = biological target: T1, LasR; experiment: lasB-lacZ reporter assay, E. coli MG4 (pKDT37); assay type: cell-based, P. aeruginosa; details: E. coli MG4 (pKDT37), 6 hour incubation
Protocol: E. coli strain MG4 (pKDT37) was grown overnight in Supplemented A media with 100 μg/mL ampicillin at 30° C. and diluted 1:100 in the same media. 1 mL of this culture was added to a test tube containing AI1 or 3-oxo-C12-D12 that had been previously aliquoted and dried. Following a 6 hour incubation at 30° C., β-galactosidase activity was determined using standard methods (Platt et al., Assays of the lac operon Enzymes In: Experiments in Molecular Genetics, Cold Spring Harbor Laboratory Press, Cold Spring Harbor, N.Y., pp. 352-355 (1972), which is hereby incorporated by reference in its entirety).
One of the new agonist structures identified from the library, D12, is 2-aminocyclohexanol (FIG. 5B). […] 3-oxo-C12-D12, containing the natural side chain, was synthesized in solution phase, and tested with both the lasI-gfp reporter as well as a lasB-lacZ reporter in Escherichia coli. E. coli strain MG4 harboring plasmid pKDT37 expresses lasR and contains a lacZ reporter gene controlled by a LasR-AI1 inducible lasB promoter (Passador et al., J. Bacteriol. 178:5995-6000 (1996), which is hereby incorporated by reference in its entirety). […] It also provides strong evidence that the agonist activity in P. aeruginosa is LasR dependent.

lasB promoter = details: 320 μM furanone competing with 0.1 μM AI1; cited from earlier work
LasR [3] = biological target: T1, LasR; experiment: lasI-gfp reporter antagonist (competition against AI1) assay, PAO-JP2 (plasI-LVAgfp); assay type: cell-based, P. aeruginosa; details: 100-fold excess concentration over AI1 (1 μM AI1)
Protocol: as §1
The methods were the same as described in Example 2 (GFP Reporter Assay), except that 1 μM AI1 was added to each well in combination with the library compound. The fluorescence/OD600 of each compound competing against AI1 was reported relative to the fluorescence/OD600 of the positive control of AI1 alone, which was set to 1. When strain PAO-JP2 (prhlI-LVAgfp) was used, the positive control was 1 μM AI1 and 10 μM AI2. Eight compounds that inhibited reporter gene expression by greater than 50% were identified (see, e.g., FIG. 6).
as §2

Elastase B [4] = experiment: elastase (Elastin Congo Red) assay, wild type strain PAO1; assay type: cell-based, P. aeruginosa PAO1; details: wild type PAO1, no exogenous autoinducers
Protocol: (§3) Pyocyanin, elastase, and biofilm were assayed as previously described (Smith et al., Chem. Biol. 10:81-89 (2003), which is hereby incorporated by reference in its entirety). Elastase activity produced by P. aeruginosa in the presence of AIs and competing 3-oxo-C12-D10 was determined by measuring breakdown of the substrate Elastin Congo Red.
(§4) For the elastase B assay, cells (PAO-JP2) were grown overnight in PTSB media (5% Peptone, 0.1% Tryptic Soy Broth) at 37° C., washed and diluted to an OD600 of 0.05, grown to mid-log phase, washed again, and re-suspended to an OD600 of 0.05. The culture was then added to test tubes containing test compound(s) and grown for 6 hours. Elastase B activity was quantified by incubation of 100 μl of filtered culture supernatant with 5 mg Elastin Congo Red substrate and 1 ml of 10 mM Tris pH 7.2, 1 mM CaCl2 for 6 hours at 37° C. with agitation. Elastase B activity is represented by the OD495 of the enzyme assay following reaction quenching with EDTA and centrifugation to remove unreacted substrate, divided by the OD600 of the cell culture. The same assay was run with strain PAO-1, however no exogenous autoinducers were added.

P. aeruginosa = experiment: cell growth in the reporter assay; assay type: cell-based; details: concentrations up to 400 μM
Protocol: Based on the above hypothesis, a competition assay of 2 and 3 against AI1, using strain PAO-JP2 (plasI-LVAgfp), was performed. […] It should be noted that this inhibition experiment was performed with competition against 1 μM AI1, a concentration typically produced by wild type P. aeruginosa (Pearson et al., Proc. Natl Acad. Sci. USA 92:1490-1494 (1995), which is hereby incorporated by reference in its entirety). […] It should also be noted that cell growth was not affected by the addition of 2 or 3 at concentrations up to 400 μM. Thus, it appears that compounds 2 and 3 act as specific inhibitors of QS controlled promoters. Compound 6 was also tested for its ability to compete against AI2, but no inhibition of the rhlI-gfp reporter gene was seen.

pyocyanin [5] = experiment: pyocyanin assay, wild type strain PAO1; assay type: cell-based, P. aeruginosa PAO1; details: wild type PAO1, no AIs added
Protocol: (§5) For the pyocyanin assay, cells were grown overnight in LB then washed in fresh media and diluted to an OD600 of 0.05. This culture was grown for 3-4 hours to mid-log phase (OD600 of 0.3-0.5), then diluted to an OD600 of 0.05, and aliquoted to test tubes containing an appropriate amount of test compound(s). Following 18 hours of growth, pyocyanin was extracted from filtered culture supernatants and quantified using standard methods (Essar et al., J. Bacteriol. 172:884-900 (1990), which is hereby incorporated by reference in its entirety).

Elastase B [6] = experiment: elastase (Elastin Congo Red) assay, strain PAO-JP2; assay type: cell-based, P. aeruginosa PAO-JP2; details: PAO-JP2, 5 μM AI1 and 10 μM AI2
Protocol: as §3, §4

pyocyanin [7] = experiment: pyocyanin assay, strain PAO-JP2; assay type: cell-based, P. aeruginosa PAO-JP2; details: PAO-JP2, 25 μM each of AI1 and AI2; not concentration dependent over the range tested
Protocol: as §5

T1 sequence (P25084 whole entry): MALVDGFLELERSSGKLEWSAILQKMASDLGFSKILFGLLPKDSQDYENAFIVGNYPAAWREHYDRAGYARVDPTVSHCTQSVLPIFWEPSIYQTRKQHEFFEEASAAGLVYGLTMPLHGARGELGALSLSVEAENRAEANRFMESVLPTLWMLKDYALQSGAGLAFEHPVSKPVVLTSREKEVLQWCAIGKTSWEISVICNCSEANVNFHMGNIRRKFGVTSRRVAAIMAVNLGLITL
T2 sequence (P54292 whole entry): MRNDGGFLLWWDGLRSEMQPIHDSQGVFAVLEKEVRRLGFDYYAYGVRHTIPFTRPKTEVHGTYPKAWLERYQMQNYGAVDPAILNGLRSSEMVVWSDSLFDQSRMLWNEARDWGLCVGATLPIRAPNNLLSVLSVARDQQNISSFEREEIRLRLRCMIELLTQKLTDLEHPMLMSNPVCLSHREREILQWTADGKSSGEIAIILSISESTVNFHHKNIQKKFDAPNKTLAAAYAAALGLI

CCCCCCCCCC(=O)CC(=O)N[C@H]1CCOC1=O [AI1, N-(3-oxododecanoyl)-L-homoserine lactone, reference compound]
agonist activity (induction of lasI-gfp reporter) (LasR [1]): activated; also recorded: Strong QS induction | reduction of binding of AI2 to RhlR (RhlR): 86% | lasB-lacZ reporter activation (beta-galactosidase activity) (LasR [2]): activated

O=C1C=C(Br)/C(=C/Br)O1 [furanone]
inhibition (antagonist activity) (lasB promoter): Approximately 50%

CCCCCCCCCC(=O)CC(=O)N[C@@H]1CCC[C@H]1O (racemic) [Compound 2, N-(trans-2-hydroxycyclopentyl)-3-oxododecanamide]
inhibition of GFP expression (lasI-gfp) (LasR [3]): approximately 70% | effect on elastase activity (Elastase B [4]): no significant effect | effect on cell growth (P. aeruginosa): not affected | effect on pyocyanin production (pyocyanin [5]): no significant effect | effect on elastase activity (Elastase B [6]): no significant effect | reduction of pyocyanin expression (pyocyanin [7]): 50%
